According to ChEMBL document CHEMBL1155182, “Diphenylmethylene hydroxamic acids as selective class IIa histone deacetylase inhibitors” (Bioorg Med Chem Lett, 2009):

What was measured:
Histone deacetylase 5 = Histone deacetylase 5 (Homo sapiens, UniProt Q9UQL6)
Description: Inhibition of human recombinant N-terminal FLAG-tagged HDAC5 (620-1122) expressed in baculovirus after 10 mins by fluorimetric analysis

Histone deacetylase 7 = target: T1, Histone deacetylase 7 (Homo sapiens, UniProt Q8WUI4)
T1 sequence (Q8WUI4 whole entry): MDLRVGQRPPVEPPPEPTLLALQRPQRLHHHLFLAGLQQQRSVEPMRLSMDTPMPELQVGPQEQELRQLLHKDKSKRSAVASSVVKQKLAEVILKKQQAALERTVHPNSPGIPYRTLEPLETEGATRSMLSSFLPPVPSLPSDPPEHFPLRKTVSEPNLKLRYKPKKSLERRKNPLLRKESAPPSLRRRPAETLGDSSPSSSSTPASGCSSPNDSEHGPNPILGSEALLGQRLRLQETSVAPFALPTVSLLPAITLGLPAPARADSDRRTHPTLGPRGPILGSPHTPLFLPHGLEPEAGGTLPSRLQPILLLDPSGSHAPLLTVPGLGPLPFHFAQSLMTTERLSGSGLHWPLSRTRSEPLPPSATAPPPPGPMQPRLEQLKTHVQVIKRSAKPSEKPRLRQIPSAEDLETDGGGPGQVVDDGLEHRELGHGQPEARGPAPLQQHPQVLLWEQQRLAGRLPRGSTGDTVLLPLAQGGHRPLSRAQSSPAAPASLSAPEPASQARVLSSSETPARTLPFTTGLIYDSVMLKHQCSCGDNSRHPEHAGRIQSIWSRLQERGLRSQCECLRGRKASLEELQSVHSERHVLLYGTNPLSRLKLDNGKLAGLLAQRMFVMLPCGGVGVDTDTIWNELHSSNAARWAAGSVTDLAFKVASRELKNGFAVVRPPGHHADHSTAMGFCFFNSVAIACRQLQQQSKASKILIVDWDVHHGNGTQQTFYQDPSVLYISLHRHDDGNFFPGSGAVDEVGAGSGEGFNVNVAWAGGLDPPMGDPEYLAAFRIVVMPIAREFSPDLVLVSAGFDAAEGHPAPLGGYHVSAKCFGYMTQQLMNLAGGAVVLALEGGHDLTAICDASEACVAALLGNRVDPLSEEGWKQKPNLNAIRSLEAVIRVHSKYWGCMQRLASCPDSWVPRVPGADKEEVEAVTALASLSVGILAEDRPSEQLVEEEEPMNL
Description: Inhibition of human recombinant N-terminal FLAG-tagged HDAC7 (438-915) expressed in baculovirus after 10 mins by fluorimetric analysis

Histone deacetylase 4 = Histone deacetylase 4 (Homo sapiens, UniProt P56524)
Histone deacetylase 4, sequence (P56524 whole entry): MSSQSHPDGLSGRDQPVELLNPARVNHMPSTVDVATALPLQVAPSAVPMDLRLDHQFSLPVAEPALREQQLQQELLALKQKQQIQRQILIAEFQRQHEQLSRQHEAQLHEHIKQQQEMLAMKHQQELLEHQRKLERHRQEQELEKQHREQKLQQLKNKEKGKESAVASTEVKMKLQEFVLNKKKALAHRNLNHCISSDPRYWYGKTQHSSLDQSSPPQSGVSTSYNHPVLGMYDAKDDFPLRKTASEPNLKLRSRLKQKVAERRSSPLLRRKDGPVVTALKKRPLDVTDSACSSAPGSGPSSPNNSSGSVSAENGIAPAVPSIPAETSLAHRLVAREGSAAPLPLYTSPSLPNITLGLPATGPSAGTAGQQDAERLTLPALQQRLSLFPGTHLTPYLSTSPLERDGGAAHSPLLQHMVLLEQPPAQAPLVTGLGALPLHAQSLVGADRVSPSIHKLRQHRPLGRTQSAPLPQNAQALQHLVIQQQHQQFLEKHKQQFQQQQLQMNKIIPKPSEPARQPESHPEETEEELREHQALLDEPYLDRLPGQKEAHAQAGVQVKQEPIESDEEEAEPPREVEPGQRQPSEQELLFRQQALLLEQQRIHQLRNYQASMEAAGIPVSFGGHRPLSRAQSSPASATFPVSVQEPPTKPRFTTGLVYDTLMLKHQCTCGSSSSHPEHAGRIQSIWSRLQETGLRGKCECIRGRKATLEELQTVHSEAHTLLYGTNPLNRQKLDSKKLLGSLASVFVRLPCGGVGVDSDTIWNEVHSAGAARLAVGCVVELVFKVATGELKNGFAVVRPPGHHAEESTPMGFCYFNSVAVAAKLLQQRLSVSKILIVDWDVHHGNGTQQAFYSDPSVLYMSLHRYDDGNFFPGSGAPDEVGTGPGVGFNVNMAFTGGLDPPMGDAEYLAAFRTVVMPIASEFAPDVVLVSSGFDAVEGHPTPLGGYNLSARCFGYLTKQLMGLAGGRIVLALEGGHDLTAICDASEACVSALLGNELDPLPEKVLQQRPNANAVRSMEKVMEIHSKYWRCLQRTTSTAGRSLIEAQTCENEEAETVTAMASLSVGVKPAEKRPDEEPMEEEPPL
Description: Inhibition of human recombinant N-terminal FLAG-tagged HDAC4 (612-1034) expressed in baculovirus after 10 mins by fluorimetric analysis

Histone deacetylase [1] = settings: hek-293t
Description: Inhibition of class 2a HDAC in HEK293T cells after 16 hrs by whole cell assay

Histone deacetylase [2] = settings: hek-293t; remark: listed apart in the source
Description: Inhibition of class 1 HDAC in HEK293T cells after 16 hrs by whole cell assay

Histone deacetylase 5, sequence (Q9UQL6 whole entry): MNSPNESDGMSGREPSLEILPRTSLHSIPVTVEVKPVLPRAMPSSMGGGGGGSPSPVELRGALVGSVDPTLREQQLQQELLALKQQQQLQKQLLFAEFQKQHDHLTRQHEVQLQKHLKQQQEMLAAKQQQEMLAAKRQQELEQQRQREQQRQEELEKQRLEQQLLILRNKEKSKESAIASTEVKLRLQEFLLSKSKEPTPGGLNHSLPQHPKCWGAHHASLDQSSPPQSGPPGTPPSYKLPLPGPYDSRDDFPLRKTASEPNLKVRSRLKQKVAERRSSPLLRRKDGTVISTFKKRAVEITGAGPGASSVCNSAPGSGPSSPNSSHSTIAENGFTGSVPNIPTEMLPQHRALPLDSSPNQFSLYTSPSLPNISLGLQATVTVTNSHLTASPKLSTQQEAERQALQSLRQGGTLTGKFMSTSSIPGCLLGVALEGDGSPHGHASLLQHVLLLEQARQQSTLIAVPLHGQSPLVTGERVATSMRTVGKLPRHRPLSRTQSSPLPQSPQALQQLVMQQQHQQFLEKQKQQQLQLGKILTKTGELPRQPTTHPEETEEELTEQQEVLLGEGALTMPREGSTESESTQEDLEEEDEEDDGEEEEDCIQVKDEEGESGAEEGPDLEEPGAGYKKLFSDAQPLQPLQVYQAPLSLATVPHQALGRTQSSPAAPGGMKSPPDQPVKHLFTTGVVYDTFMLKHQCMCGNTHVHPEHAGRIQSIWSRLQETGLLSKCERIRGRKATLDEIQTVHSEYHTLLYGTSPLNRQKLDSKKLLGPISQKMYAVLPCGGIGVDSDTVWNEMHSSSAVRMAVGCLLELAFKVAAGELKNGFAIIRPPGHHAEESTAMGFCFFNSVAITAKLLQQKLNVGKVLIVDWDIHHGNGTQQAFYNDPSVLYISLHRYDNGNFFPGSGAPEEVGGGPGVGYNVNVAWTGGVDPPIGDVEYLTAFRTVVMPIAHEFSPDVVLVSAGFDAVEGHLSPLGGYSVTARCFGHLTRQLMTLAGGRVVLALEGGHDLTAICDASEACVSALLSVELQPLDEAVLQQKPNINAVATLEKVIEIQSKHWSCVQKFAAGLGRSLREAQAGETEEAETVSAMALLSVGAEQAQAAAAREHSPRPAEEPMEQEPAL

SMILES	IC50 (Histone deacetylase 5)	IC50 (Histone deacetylase 7)	IC50 (Histone deacetylase 4)	IC50 (Histone deacetylase [1])	IC50 (Histone deacetylase [2])
O=C(NO)C(Cc1ccccc1)c1ccccc1 (stereo not drawn)	> 10000 nM	> 10000 nM	> 10000 nM		
CC(C(=O)NO)c1ccccc1 (stereo not drawn)	> 10000 nM	> 10000 nM	> 10000 nM		
O=C(NO)C1c2ccccc2Cc2ccccc21	1460 nM		2320 nM		
CS(=O)(=O)Nc1ccc(C(C(=O)NO)c2ccc(NS(C)(=O)=O)cc2)cc1	> 10000 nM	> 10000 nM	> 10000 nM	> 50000 nM	> 50000 nM
O=C(CC(c1ccccc1)c1ccccc1)NO	> 10000 nM	> 10000 nM	> 10000 nM		

Molecules with a lower IC50 (Histone deacetylase 5), results first:

IC50 (Histone deacetylase 5)	IC50 (Histone deacetylase 7)	IC50 (Histone deacetylase 4)	IC50 (Histone deacetylase [1])	IC50 (Histone deacetylase [2])	SMILES
470 nM		1910 nM			CN1c2ccccc2C(C(=O)NO)c2ccccc21
1200 nM	4800 nM	4500 nM	16000 nM	> 50000 nM	CC(C(=O)NO)(c1ccccc1)c1ccccc1
110 nM	110 nM	210 nM	900 nM	> 50000 nM	O=C(NO)C(c1ccc2c(c1)CCO2)c1ccc2c(c1)CCO2
90 nM		700 nM			O=C(NO)C(c1cccc(F)c1)c1cccc(F)c1
280 nM	1760 nM	1100 nM	3500 nM	> 50000 nM	O=C(NO)C(c1ccc(F)cc1)c1ccc(F)cc1
210 nM	1400 nM	960 nM			O=C(NO)C(c1ccc(Cl)cc1)c1ccc(Cl)cc1
